Reference: PubChem BioAssay AID651620 (Broad Institute, 2012)

Test system: non-replicating M. tuberculosis, luciferase reporter
Experiment: inhibitors of non-replicating M. tuberculosis, dose response, luciferase, dry powder (AID 651620)

Q: With [N-]=[N+]=NCCOCCNC(=O)CCCn1cc(CS(=O)c2nnc(-c3ccc(F)cc3)o2)nn1 (stereo unspecified) as the compound, how does the IC90 read?
A: Its IC90 is 125 µM.
